# Data reported in US7138361B2, “Herbicidal heterocycles” (E. I. du Pont de Nemours and Company, priority 2000, dated 2006).
# Legend:
# Type in all cases: in vivo
# [1] = system: pigweed (Amaranthus retroflexus); assay: Test C preemergence
# Procedure, shortened: (§1)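 Formulation: non-phytotoxic solvent mix incl. surfactant. Pre: applied right after planting. Post: 1–4-leaf seedlings. Read: visual 0–100, day 12–14, greenhouse.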
# [2] = system: goosegrass (Eleusine indica); assay: Test C preemergence
# Procedure, shortened: as §1
# [3] = system: Surinam grass (Brachiaria decumbens); assay: Test C preemergence
# Procedure, shortened: as §1
# Nightshade = assay: Test C preemergence
# soybean (Glycine max) = assay: Test C preemergence
# Procedure, shortened: as §1
# [4] = system: lambsquarters (Chenopodium album); assay: Test C preemergence
# Procedure, shortened: as §1
# [5] = system: woolly cupgrass (Eriochloa villosa); assay: Test C preemergence
# Procedure, shortened: as §1
# [6] = system: crabgrass (Digitaria sanguinalis); assay: Test C preemergence
# Procedure, shortened: as §1
# [7] = system: common ragweed (Ambrosia elatior); assay: Test C preemergence
# Procedure, shortened: as §1
# [8] = system: cocklebur (Xanthium strumarium); assay: Test C preemergence
# Procedure, shortened: as §1
# [9] = system: barnyardgrass (Echinochloa crus-galli); assay: Test B preemergence
# Procedure, shortened: (§2)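 Pre: seeded pots sprayed, chemical in non-phytotoxic solvent/surfactant mix. Post: plants 2–18 cm, 1–4 leaf, same formulation. Greenhouse 13–15 d; visual % control vs untreated, 0–100 scale.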
# rice (Oryza saliva) = assay: Test B preemergence
# Procedure, shortened: as §2
# [10] = system: pigweed (Amaranthus retroflexus); assay: Test B preemergence
# Procedure, shortened: as §2
# [11] = system: Surinam grass (Brachiaria decumbens); assay: Test B preemergence
# Procedure, shortened: as §2
# [12] = system: lambsquarters (Chenopodium album); assay: Test B preemergence
# Procedure, shortened: as §2
# [13] = system: crabgrass (Digitaria sanguinalis); assay: Test B preemergence
# Procedure, shortened: as §2
# [14] = system: giant foxtail (Setaria faberii); assay: Test B preemergence
# Procedure, shortened: as §2
# [15] = system: velvetleaf (Abutilon theophrasti); assay: Test B preemergence
# Procedure, shortened: as §2
# [16] = system: cocklebur (Xanthium strumarium); assay: Test B preemergence
# Procedure, shortened: as §2
# [17] = system: morning glory (Ipomoea hederacea); assay: Test B preemergence
# Procedure, shortened: as §2
# corn (Zea mays) = assay: Test B preemergence
# Procedure, shortened: as §2
# [18] = Rate 125 g/ha, scale 0 to 100, 0 no effect, 100 complete control
# [19] = preemergence, Rate 62 g/ha, scale 0 to 100
# [20] = preemergence, Rate 500 g/ha, visual evaluation after 12 to 14 days
# [21] = preemergence, Rate 250 g/ha, scale 0 to 100, 0 no effect, 100 complete control
# [22] = Preemergence, Rate 500 g/ha, scale 0 to 100, 0 no effect, 100 complete control
# [23] = preemergence, Rate 125 g/ha, scale of 0 to 100 where 0 is no effect and 100 is complete control, 13 to 15 days
smiles,measurement,setting,value
CC(C)(C)c1ccn(C2CCN(c3cccc(I)c3)C2=O)n1 (stereo not shown) [Compound 88],"Plant response rating, Pigweed",[1]; [18],10
same,"Plant response rating, Pigweed",[1]; [19],0
same,"Plant response rating (0 to 100), Pigweed",[1]; [20],100
same,"Plant response rating, Pigweed",[1]; [21],40
same,"Plant response rating, Goosegrass",[2]; [18],100
same,"Plant response rating, Goosegrass",[2]; [19],100
same,"Plant response rating (0 to 100), Goosegrass",[2]; [20],100
same,"Plant response rating, Goosegrass",[2]; [21],100
same,"Plant response rating, Surinam grass",[3]; [18],30
same,"Plant response rating, Surinam grass",[3]; [19],40
same,"Plant response rating (0 to 100), Surinam grass",[3]; [20],100
same,"Plant response rating, Surinam grass",[3]; [21],70
same,"Plant response rating, Nightshade","Nightshade; Rate 62 g/ha, scale 0 to 100",30
same,"Plant response rating, Nightshade",Nightshade; [18],20
same,"Plant response rating, Nightshade","Nightshade; Rate 250 g/ha, scale 0 to 100, 0 no effect, 100 complete control",80
same,"Plant response rating, Soybean",soybean (Glycine max); [18],10
same,"Plant response rating, Soybean",soybean (Glycine max); [19],0
same,"Plant response rating (0 to 100), Soybean",soybean (Glycine max); [20],30
same,"Plant response rating, Soybean",soybean (Glycine max); [21],10
same,"Plant response rating, Lambsquarters",[4]; [18],100
same,"Plant response rating, Lambsquarters",[4]; [19],100
same,"Plant response rating (0 to 100), Lambsquarters",[4]; [20],100
same,"Plant response rating, Lambsquarters",[4]; [21],100
same,"Plant response rating, Cupgrass, Woolly",[5]; [18],90
same,"Plant response rating, Cupgrass, Woolly",[5]; [19],60
same,"Plant response rating (0 to 100), Cupgrass, Woolly",[5]; [20],100
same,"Plant response rating, Cupgrass, Woolly",[5]; [21],100
same,"Plant response rating, Crabgrass",[6]; [18],100
same,"Plant response rating, Crabgrass",[6]; [19],100
same,"Plant response rating (0 to 100), Crabgrass",[6]; [20],100
same,"Plant response rating, Crabgrass",[6]; [21],100
same,"Plant response rating, Ragweed, Common",[7]; [18],0
same,"Plant response rating, Ragweed, Common",[7]; [19],0
same,"Plant response rating (0 to 100), Ragweed, Common",[7]; [20],20
same,"Plant response rating, Ragweed, Common",[7]; [21],0
same,"Plant response rating, Cocklebur",[8]; [18],0
same,"Plant response rating, Cocklebur",[8]; [19],0
same,"Plant response rating (0 to 100), Cocklebur",[8]; [20],20
same,"Plant response rating, Cocklebur",[8]; [21],20
same,"Plant response rating, Barnyardgrass",[9]; [22],100
same,"Plant response rating, Barnyardgrass",[9]; [23],100
same,"Plant response rating, Rice",rice (Oryza saliva); [22],100
same,"Plant response rating, Rice",rice (Oryza saliva); [23],0
same,"Plant response rating, Pigweed",[10]; [22],100
same,"Plant response rating, Pigweed",[10]; [23],100
same,"Plant response rating, Surinam grass",[11]; [22],100
same,"Plant response rating, Surinam grass",[11]; [23],70
same,"Plant response rating, Lambsquarters",[12]; [22],100
same,"Plant response rating, Lambsquarters",[12]; [23],100
same,"Plant response rating, Crabgrass",[13]; [22],100
same,"Plant response rating, Crabgrass",[13]; [23],100
same,"Plant response rating, Foxtail, Giant",[14]; [22],100
same,"Plant response rating, Foxtail, Giant",[14]; [23],100
same,"Plant response rating, Velvetleaf",[15]; [22],0
same,"Plant response rating, Velvetleaf",[15]; [23],0
same,"Plant response rating, Cocklebur",[16]; [22],0
same,"Plant response rating, Cocklebur",[16]; [23],0
same,"Plant response rating, Morningglory",[17]; [22],0
same,"Plant response rating, Morningglory",[17]; [23],0
same,"Plant response rating, Corn",corn (Zea mays); [22],20
same,"Plant response rating, Corn",corn (Zea mays); [23],20
